Literature values in paper PMC8965884, “Synthesis and Characterization of Phenylboronic Acid-Modified Insulin With Glucose-Dependent Solubility” (Frontiers in Chemistry, 2022).

From the text: Insulin glargine, marketed as Lantus®, is a long-acting insulin analog with a 24-h dosing regimen. The additional 2 arginine residues on the C-terminus of the B chain increases its isoelectric point (pI) 6.7, which lowers its solubility at physiological pH and leads to precipitation at the subcutaneous injection site ([Kohn et al., 2007]). Glargine is then released slowly from the precipitate into the bloodstream to establish the long-acting property.

| pKa (non-substituted PBA, ref Yan et al., 2004) | Compound | isoelectric point (pI) (ref Kohn et al., 2007) |
| --- | --- | --- |
| 8.8 | OB(O)c1ccccc1 [PBA, phenylboronic acids] | – |
| – | Insulin glargine | 6.7 |
